ChEMBL document CHEMBL1201862, “PubChem BioAssay data set” (2004)
Activity calls are given as the source filed them.

Tests used:
[1] = NIH-3T3 fibroblast cytotoxicity, dose response, cytotoxicity control, cell-based, fluorescence, Alamar Blue, secondary assay (AID 2327); type: functional;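 note: NIH-3T3 mouse fibroblasts cultured with fluconazole at 8 µg/mL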
[2] = fluconazole-exposed Candida albicans growth modulators – fluorescence, retest, confirmation (AID 2467); type: functional, cell-based
[3] = molecular target: T1, Serine/threonine-protein phosphatase (Candida dubliniensis (strain CD36 / CBS 7987 / NCPF 3949 / NRRLY-17841) (Yeast), UniProt B9W6M3); test: blockers of CaCl2-induced CDRE-lacZ signaling – S. cerevisiae, luminescence, secondary, dose response (AID 2388); type: functional, cell-based;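 note: yeast reporter cells carrying a calcineurin-responsive lacZ construct stimulated with calcium chloride; luminescent beta-galactosidase reporter signal in whole cells rather than isolated phosphatase activity; potency for inhibition where a drop in reporter signal means calcineurin blockade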
T1 sequence (B9W6M3 whole entry): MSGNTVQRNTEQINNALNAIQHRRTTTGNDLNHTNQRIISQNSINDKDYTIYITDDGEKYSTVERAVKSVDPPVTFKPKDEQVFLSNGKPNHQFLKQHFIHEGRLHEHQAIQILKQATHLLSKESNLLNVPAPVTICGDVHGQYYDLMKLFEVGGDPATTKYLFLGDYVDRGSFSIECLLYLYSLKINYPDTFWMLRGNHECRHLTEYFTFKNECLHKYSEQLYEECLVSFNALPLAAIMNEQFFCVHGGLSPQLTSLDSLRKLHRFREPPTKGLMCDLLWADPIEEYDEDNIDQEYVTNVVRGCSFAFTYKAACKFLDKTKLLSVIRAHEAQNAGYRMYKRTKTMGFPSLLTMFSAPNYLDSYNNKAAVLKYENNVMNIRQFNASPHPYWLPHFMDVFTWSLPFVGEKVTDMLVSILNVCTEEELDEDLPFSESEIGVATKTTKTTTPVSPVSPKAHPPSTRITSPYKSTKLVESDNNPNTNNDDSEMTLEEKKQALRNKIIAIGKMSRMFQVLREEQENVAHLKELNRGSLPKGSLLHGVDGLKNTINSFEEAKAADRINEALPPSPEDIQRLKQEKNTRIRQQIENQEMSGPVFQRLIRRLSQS

[4] = molecular target: ATP-dependent molecular chaperone HSP82 (Candida albicans (strain WO-1) (Yeast), UniProt C4YTQ8); test: steroid-induced GRE reporter decrease in yeast – S. cerevisiae, luminescence, Hsp90 inhibitor project, dose response (AID 2400); type: functional, cell-based;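 note: beta-galactosidase luminescence from glucocorticoid response element reporter as proxy for Hsp90 function; inhibitor potency where signal loss means Hsp90 inhibition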
[5] = Trypanosoma cruzi growth suppression in host cells – NIH3T3 host cells, beta-gal luminescence, confirmation (AID 2044); type: functional, cell-based;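 note: intracellular parasites grown in NIH/3T3 mouse fibroblasts as host cells; luminescent beta-galactosidase reporter signal from transgenic T. cruzi replicating inside host cells; inhibitors lower the luminescence signal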
[6] = NIH3T3 cell viability loss – ATP luminescence, mouse fibroblasts, counter-screen, dose response (AID 2010); type: functional, cell-based;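 note: cells exposed to compound for about 90 hours before reading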
Protein Wnt-3a = Protein Wnt-3a (Mus musculus, UniProt P27467); test: antagonism of Wnt3a pathway luciferase reporter – Wnt-LIGHT cells, luminescence, selectivity assay for Gli-SUFU antagonist project, dose response (AID 651570); type: functional; settings: read-out: IC50_Mean;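 note: Wnt-LIGHT reporter cells stimulated with conditioned medium from Wnt3a-producing cells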
[7] = molecular target: T2, Microphthalmia-associated transcription factor (Homo sapiens, UniProt O75030); test: reducers of TRPM1 reporter luminescence, concentration series – cell-based, SK-MEL-5, cherry-picked, set 3, MITF inhibitor project, dose response (AID 493073); type: functional;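 note: SK-MEL-5 melanoma cells with luciferase driven by the MITF target TRPM1 promoter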
T2 sequence (O75030 whole entry): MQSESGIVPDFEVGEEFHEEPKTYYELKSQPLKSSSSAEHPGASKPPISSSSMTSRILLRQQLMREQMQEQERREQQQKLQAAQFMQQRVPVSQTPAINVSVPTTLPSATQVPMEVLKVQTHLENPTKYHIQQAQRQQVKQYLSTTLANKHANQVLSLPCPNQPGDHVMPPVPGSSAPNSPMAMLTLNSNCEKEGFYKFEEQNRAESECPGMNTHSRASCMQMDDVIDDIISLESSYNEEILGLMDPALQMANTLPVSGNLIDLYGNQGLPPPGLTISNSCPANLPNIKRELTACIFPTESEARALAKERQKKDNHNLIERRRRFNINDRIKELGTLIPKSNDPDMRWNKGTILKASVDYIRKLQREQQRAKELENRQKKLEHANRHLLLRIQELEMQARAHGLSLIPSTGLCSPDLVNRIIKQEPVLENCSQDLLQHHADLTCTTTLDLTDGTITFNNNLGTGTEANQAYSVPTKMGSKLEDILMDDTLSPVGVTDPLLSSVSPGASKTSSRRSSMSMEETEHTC

[8] = loss of viability in HepG2 cells – cell-based, CellTiter-Glo, cherry-picked, cytotoxicity control for Shn3 inhibitor project, dose response (AID 624134); type: functional
[9] = reduction of Shn3 3'UTR-driven luciferase in osteoblasts – cell-based, Clone20 osteoblasts, firefly luciferase, cherry-picked, dose response (AID 624132); type: functional;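 note: firefly luciferase luminescence from reporter carrying the Shn3 3'UTR in osteoblasts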
[10] = non-specific 3'UTR reporter inhibition in Clone20-Shn3RL – cell-based, Renilla luciferase, cherry-picked, counter-screen for Shn3 inhibitor project, dose response (AID 624133); type: functional
[11] = molecular target: T3, High affinity choline transporter 1 (Homo sapiens, UniProt Q9GZV3); test: human choline transporter blockers, potency – cell-based, 5-point CRC, membrane potential dye, dose response (AID 504840); type: functional
T3 sequence (Q9GZV3 whole entry): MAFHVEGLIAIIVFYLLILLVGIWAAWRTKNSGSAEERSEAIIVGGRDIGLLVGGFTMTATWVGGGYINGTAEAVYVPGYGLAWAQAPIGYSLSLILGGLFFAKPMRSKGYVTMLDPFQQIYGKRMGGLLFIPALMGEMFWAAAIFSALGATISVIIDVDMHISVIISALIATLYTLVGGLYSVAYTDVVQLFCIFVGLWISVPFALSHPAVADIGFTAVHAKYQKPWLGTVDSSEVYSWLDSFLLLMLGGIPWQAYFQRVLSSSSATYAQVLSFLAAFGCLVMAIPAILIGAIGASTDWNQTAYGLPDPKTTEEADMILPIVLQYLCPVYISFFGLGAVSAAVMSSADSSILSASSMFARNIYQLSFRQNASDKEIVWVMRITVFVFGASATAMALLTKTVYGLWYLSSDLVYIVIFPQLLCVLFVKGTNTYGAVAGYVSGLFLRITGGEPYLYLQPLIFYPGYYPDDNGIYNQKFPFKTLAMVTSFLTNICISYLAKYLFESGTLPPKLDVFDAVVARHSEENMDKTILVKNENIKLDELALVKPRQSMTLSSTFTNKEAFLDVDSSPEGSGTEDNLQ

Fatty acid synthase [12] = molecular target: T4, Fatty acid synthase (Homo sapiens, UniProt P49327); test: inhibition of human FAS-TE enzyme activity – biochemical, endpoint fluorescence intensity, uHTS hits, dose response (AID 624327); type: functional;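 note: fluorescence from hydrolysis of an O-methyl fluorescein acyl ester substrate by the enzyme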
[13] = DRD fibroblast viability loss – cell-based, non-viral oncogenic, luminescence, dose response (AID 1934); type: functional; settings: Homo sapiens
Fatty acid synthase [14] = molecular target: T4, Fatty acid synthase; test: inhibition of human FAS-TE enzyme activity – biochemical, kinetic fluorescence intensity, dose response (AID 624326); type: functional;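 note: rate of fluorescence rise from hydrolysis of a fluorogenic O-methyl fluorescein ester substrate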
[15] = HEK-293T viability loss after treatment – luminescence, T-cell screen hits, cytotoxicity control for TCR NF-kB inhibitor project, dose response (AID 489026); type: functional, cell-based;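 note: cells exposed to compound about 14 hours before the viability readout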
BJ [16] = test: BJ-TERT fibroblast viability loss – cell-based, RAS-independent, luminescence, dose response (AID 1933); type: functional; settings: Homo sapiens
BJ [17] = test: BJ-TERT-LT-ST fibroblast viability loss – cell-based, RAS-independent, luminescence, dose response (AID 1935); type: functional; settings: Homo sapiens;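 note: BJ fibroblasts immortalized with TERT plus LT and ST oncogenes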
BJ [18] = test: cells; type: functional, cell-based; settings: Homo sapiens
[19] = test system: Streptococcus sp. 'group A'; test: Streptococcus pyogenes SK(-)GAS viability under kanamycin – luminescence, BacTiterGlo, confirmation, counter-screen for streptokinase expression inhibitor project, dose response (AID 1900); type: functional, organism-based
Streptokinase A = molecular target: T5, Streptokinase A (Streptococcus pyogenes serotype M1, UniProt P10520); test: viability-normalized secreted streptokinase activity reduction – plasminogen activation absorbance, OD405, dose response (AID 1914); type: functional, Streptococcus pyogenes M1 GAS;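 note: secreted streptokinase activity via plasminogen activation per viability signal from cell pellet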
T5 sequence (P10520 whole entry): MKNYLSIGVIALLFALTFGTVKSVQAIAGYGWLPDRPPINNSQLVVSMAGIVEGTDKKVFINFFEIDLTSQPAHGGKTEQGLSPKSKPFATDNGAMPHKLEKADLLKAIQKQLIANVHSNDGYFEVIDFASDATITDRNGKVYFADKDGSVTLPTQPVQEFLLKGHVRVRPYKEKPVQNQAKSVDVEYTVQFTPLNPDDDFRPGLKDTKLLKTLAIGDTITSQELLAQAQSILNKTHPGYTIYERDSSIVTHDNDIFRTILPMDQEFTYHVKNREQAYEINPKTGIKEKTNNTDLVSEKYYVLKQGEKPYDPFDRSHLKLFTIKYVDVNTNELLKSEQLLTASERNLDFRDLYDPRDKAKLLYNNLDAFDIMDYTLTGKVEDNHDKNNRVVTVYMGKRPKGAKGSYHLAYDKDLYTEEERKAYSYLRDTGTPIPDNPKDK

INS1 = test: INS-1E survival protection against cytokine death – cell-based, luminescence, retest, dose response (AID 449756); type: functional; settings: Rattus norvegicus;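 note: cell death triggered by IL-1 beta plus TNF-alpha plus IFN-gamma mixture; protective hits raise ATP signal compared with cytokine alone wells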
Streptococcus = test: GAS UMAA2166 growth inhibition – luminescence, BacTiterGlo, counter-screen for streptokinase expression inhibitor project, dose response (AID 1915); type: functional, organism-based;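 note: potency for reduction of bacterial viability or growth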
[20] = molecular target: Heat shock protein HSP 90-alpha (Homo sapiens, UniProt P07900); type: functional, organism-based
cells = type: functional
[21] = Luminescence Cell-Based Dose Retest to Confirm Inhibitors of Cancer Stem Cells. [Related pubchem assays (depositor defined):AID2717, AID2721]; type: functional, Homo sapiens; settings: Homo sapiens
Vero = test: cells; type: functional; settings: Chlorocebus sabaeus

Sequence of ATP-dependent molecular chaperone HSP82 (C4YTQ8 whole entry): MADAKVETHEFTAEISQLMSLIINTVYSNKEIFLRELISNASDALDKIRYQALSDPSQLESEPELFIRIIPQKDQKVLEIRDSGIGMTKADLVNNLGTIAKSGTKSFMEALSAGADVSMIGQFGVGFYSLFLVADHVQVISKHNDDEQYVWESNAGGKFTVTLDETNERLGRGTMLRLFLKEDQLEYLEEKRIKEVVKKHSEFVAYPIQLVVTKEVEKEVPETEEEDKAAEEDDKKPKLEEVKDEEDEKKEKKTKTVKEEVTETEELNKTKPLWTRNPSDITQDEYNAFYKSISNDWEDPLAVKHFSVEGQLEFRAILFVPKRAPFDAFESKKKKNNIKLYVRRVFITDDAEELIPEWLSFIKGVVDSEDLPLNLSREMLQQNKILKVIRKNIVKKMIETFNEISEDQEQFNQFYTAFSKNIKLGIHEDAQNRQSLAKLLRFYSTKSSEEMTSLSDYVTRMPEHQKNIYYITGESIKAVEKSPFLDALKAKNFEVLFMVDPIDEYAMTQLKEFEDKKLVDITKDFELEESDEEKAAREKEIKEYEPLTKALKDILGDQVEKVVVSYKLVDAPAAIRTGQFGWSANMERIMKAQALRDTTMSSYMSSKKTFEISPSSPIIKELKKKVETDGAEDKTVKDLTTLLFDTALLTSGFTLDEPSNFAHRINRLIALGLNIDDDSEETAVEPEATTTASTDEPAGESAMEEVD
Sequence of Protein Wnt-3a (P27467 whole entry): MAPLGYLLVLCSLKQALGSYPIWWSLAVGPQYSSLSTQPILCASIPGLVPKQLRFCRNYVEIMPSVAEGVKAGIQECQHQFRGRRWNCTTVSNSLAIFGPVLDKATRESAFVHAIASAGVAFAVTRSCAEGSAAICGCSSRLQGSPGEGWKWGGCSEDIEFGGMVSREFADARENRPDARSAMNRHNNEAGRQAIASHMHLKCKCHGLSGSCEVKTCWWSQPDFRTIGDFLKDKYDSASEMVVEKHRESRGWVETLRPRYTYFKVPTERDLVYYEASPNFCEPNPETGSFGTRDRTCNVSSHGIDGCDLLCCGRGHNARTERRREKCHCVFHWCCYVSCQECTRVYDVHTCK
T4 sequence (P49327 whole entry): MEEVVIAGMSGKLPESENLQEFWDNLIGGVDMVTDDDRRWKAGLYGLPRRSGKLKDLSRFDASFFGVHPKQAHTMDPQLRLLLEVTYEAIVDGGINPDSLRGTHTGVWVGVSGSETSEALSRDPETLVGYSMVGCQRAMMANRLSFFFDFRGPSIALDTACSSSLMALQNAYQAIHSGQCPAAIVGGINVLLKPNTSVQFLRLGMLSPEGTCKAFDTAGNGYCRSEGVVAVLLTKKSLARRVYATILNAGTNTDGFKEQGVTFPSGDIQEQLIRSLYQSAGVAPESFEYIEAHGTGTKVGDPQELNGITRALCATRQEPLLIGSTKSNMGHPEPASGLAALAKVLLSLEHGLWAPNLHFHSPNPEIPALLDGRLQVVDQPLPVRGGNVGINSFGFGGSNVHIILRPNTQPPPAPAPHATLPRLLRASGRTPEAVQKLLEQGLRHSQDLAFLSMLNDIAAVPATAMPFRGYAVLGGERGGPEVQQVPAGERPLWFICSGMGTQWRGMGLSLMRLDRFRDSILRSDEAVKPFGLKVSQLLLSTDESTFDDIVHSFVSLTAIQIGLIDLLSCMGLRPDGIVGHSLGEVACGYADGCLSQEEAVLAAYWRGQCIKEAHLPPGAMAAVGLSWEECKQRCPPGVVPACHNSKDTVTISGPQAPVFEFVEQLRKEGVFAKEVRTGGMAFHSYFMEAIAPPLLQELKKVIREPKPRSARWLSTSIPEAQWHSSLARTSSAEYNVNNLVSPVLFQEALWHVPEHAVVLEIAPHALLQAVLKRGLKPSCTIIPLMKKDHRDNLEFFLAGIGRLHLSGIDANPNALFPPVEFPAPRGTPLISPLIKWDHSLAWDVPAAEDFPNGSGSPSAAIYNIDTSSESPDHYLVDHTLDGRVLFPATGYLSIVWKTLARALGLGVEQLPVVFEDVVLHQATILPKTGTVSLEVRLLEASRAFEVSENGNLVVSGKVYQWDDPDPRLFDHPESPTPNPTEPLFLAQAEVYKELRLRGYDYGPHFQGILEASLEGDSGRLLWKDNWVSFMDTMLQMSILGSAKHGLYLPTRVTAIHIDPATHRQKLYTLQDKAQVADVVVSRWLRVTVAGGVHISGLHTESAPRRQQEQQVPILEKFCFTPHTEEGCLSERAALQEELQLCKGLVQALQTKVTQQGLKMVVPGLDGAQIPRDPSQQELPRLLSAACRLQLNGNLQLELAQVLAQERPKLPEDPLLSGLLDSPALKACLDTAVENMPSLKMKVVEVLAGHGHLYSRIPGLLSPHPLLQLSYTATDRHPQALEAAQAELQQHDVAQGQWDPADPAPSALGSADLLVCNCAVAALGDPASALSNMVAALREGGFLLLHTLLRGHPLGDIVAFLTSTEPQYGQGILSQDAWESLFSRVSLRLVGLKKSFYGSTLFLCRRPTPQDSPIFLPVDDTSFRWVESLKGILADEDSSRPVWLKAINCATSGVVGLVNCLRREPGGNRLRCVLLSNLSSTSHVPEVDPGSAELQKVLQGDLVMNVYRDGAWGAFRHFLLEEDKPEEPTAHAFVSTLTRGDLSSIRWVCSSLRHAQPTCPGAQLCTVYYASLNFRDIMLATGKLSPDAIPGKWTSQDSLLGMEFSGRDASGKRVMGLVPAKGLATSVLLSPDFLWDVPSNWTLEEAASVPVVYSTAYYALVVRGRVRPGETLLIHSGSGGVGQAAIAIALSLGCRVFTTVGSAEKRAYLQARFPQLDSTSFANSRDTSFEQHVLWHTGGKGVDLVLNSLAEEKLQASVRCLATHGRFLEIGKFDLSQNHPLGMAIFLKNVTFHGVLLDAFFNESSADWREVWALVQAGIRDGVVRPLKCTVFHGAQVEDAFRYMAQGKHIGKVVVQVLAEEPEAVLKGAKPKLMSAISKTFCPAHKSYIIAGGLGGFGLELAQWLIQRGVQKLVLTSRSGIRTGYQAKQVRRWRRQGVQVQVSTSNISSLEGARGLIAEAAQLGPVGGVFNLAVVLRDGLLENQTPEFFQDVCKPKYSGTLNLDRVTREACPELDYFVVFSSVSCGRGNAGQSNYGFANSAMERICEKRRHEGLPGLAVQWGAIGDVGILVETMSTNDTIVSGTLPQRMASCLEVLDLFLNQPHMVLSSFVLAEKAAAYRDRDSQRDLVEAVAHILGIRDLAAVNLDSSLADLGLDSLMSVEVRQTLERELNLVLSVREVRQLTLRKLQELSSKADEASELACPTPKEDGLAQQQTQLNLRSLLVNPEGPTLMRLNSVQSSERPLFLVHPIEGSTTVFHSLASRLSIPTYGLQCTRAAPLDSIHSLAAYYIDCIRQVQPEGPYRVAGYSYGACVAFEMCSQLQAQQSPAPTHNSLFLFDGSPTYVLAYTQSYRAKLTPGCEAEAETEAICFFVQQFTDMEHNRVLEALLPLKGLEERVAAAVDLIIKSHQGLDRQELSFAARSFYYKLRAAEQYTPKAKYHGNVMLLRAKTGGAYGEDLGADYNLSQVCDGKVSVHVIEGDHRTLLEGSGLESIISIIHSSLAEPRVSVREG

O=C(c1ccc(Cn2c(=O)[nH]c3ccccc3c2=O)cc1)N1CCN(c2ccc(F)cc2)CC1
EC50 [1]: 14.3 µM (active)
EC50 [2]: 0.912 µM (active)
EC50 [3]: > 180 µM (inactive)
EC50 [4]: > 150 µM (inactive)

Sc1nnc(C2CCCCC2)n1/N=C/c1ccc(Br)s1
EC50 [1]: > 150 µM (inactive)
EC50 [2]: 1.07 µM (active)
EC50 [3]: > 180 µM (inactive)
EC50 [4]: 18.9 µM (active)

C[C@@H]1CC[C@@]2(NC1)O[C@H]1C[C@H]3[C@@H]4CC=C5C[C@@H](O)CC[C@]5(C)[C@H]4CC[C@]3(C)[C@H]1[C@@H]2C
EC50 [1]: > 160 µM (inconclusive)
EC50 [2]: 0.272 µM (active)
EC50 [3]: > 180 µM (inactive)
EC50 [4]: > 160 µM (inactive)

CCCc1c(CC)c(=N)c2ccccc2n1C
EC50 [5]: 0.121 µM (active)
EC50 [6]: > 60 µM (not active)
IC50 (Protein Wnt-3a): 11.3 µM (active)

O=C(Nc1ccc(OC(F)(F)F)cc1)c1n[nH]cc1[N+](=O)[O-]
AC50 [7]: 0.601 µM (active)

CCC(=O)NC(c1ccco1)c1cc(Cl)c2cccnc2c1O (stereo not drawn)
EC50 [1]: 24.9 µM (active)
EC50 [2]: 0.56 µM (active)
EC50 [3]: > 180 µM (inactive)
AC50 [8]: 7.81 µM (active)
EC50 [5]: 1.97 µM (active)
AC50 [9]: 1.31 µM (active)
EC50 [6]: 7.21 µM (active)
AC50 [10]: 3.57 µM (active)
EC50 [4]: > 150 µM (inactive)

O=C(N/N=C/c1cc2ccccc2nc1Cl)[C@H]1C[C@@H]1c1ccccc1
IC50 (Protein Wnt-3a): 39.9 µM (inactive)

Cn1c(N2CCOCC2)c(/C=N/OC(=O)c2ccc(F)cc2)c2ccccc21
EC50 [1]: > 160 µM (inconclusive)
EC50 [2]: 0.382 µM (active)
EC50 [3]: > 180 µM (inactive)
IC50 [11]: 15.9 µM (active)
EC50 [5]: 0.596 µM (active)
EC50 [6]: 1.98 µM (active)
EC50 [4]: > 160 µM (inactive)

Cc1ccc(COC(=O)c2cc([N+](=O)[O-])ccc2N2CCOCC2)cc1
IC50 (Fatty acid synthase [12]): 10.3 µM (active)
EC50 [13]: 0.529 µM (inconclusive)
IC50 (Fatty acid synthase [14]): 9.01 µM (active)
IC50 [15]: > 80 µM (inactive)
EC50 (BJ [16]): 0.223 µM (active)
EC50 (BJ [17]): 0.127 µM (inconclusive)
EC50 (BJ [18]): 11 µM (inconclusive)

C[C@@H]1COC(=O)[C@H](NC(=O)OCC2c3ccccc3-c3ccccc32)C/C=C\C[C@@H](CC(=O)N[C@@H](CO)Cc2ccccc2)C(=O)N1
IC50 (Protein Wnt-3a): 12.3 µM (active)

CC(C)C(=O)NC(c1cccs1)c1cc([N+](=O)[O-])c2cccnc2c1O (stereo not drawn)
EC50 [1]: 13.4 µM (active)
EC50 [2]: 0.242 µM (active)
EC50 [3]: > 180 µM (inactive)
EC50 [19]: 2.59 µM (active)
EC50 (Streptokinase A): > 150 µM (not active)
AC50 (INS1): 3.87 µM (active)
EC50 (Streptococcus): 6.98 µM (active)
EC50 [4]: 24.6 µM (active)

Cc1cc(C)c[n+](C(C)C(=O)c2ccc(-c3ccccc3)cc2)c1 (stereo not drawn)
IC50 (Protein Wnt-3a): 8.95 µM (active)

O=C(Nc1nnc(CCc2ccccc2)s1)c1ccco1
EC50 [1]: > 150 µM (inactive)
EC50 [2]: 1.08 µM (active)
EC50 [3]: > 180 µM (inactive)
EC50 [4]: > 150 µM (inactive)

O=C(Nc1ccccc1N1CCOCC1)c1ccc([N+](=O)[O-])s1
AC50 [7]: 12.3 µM (active)
AC50 [20]: 7.97 µM (active)

O=C(COC(=O)CCN1C(=O)/C(=C\C=C\c2ccccc2)SC1=S)Nc1cc(F)ccc1F
AC50 [7]: 7.49 µM (active)
IC50 (cells): 26.4 µM (active)

Cc1cc(C(C)(C)C)cc(C)c1C[n+]1ccc2ccccc2c1
AC50 (INS1): 1.45 µM (active)
IC50 [15]: > 80 µM (inactive)

COc1ccc(Br)cc1C(C[N+](=O)[O-])c1c(N)n(C)c(=O)n(C)c1=O (stereo not drawn)
AC50 [7]: 8.73 µM (active)
AC50 [21]: 3.46 µM (active)
CC50 (Vero): 10.5 µM (active)
